From US9738932B2, “Biomarkers for cardiovascular side-effects induced by cox-2 inhibitory compounds” (FIRALIS SAS, priority 2005, dated 2017)

Tested on: mRNA expression in cardiovascular tissues
Assay: Affymetrix GeneChip mRNA expression profiling of monkey tissues (iliac vein, pulmonary vein, aorta, carotid artery, heart) after two-week oral-gavage treatment
[1] = iliac vein, group avg, Vioxx without A60055

CS(=O)(=O)c1ccc(C2=C(c3ccccc3)C(=O)OC2)cc1 [Vioxx®, rofecoxib]
150 fold: increase of MCP-1 mRNA expression in pulmonary vein (monkey A60055, 50 mg/kg/day oral gavage, two weeks, pulmonary vein)
0.5 fold: IGFBP4 (201508_at) avg fold change vs control [1] | LAIR1 (208071_s_at) avg fold change vs control [1] | LILRB1 (207857_at) avg fold change vs control [1] | PCOLCE (202465_at) avg fold change vs control [1]
upregulated: expression of cPLA2 (most of the cardiovascular tissues)
1.7 fold: ISGF3G (203882_at) avg fold change vs control [1] | LRMP (204674_at) avg fold change vs control [1] | STAT1 (209969_s_at) avg fold change vs control [1]
0.7 fold: PRC1 (218009_s_at) avg fold change vs control [1]
1.8 fold: HLA-A (211530_x_at) avg fold change vs control [1]
0.9 fold: HLA-DQB1 (209823_x_at) avg fold change vs control [1] | ICAM1 (215485_s_at) avg fold change vs control [1] | IFIT4 (204747_at) avg fold change vs control [1] | IGF1 (209541_at) avg fold change vs control [1] | LCP2 (205270_s_at) avg fold change vs control [1] | LILRB3 (208594_x_at) avg fold change vs control [1] | TAPBP (208829_at) avg fold change vs control [1] | TCTEL1 (201999_s_at) avg fold change vs control [1] | TLR1 (210176_at) avg fold change vs control [1] | TLR2 (204924_at) avg fold change vs control [1] | TNFSF10 (202688_at) avg fold change vs control [1]
1.0 fold: HFE (211866_x_at) avg fold change vs control [1] | HLA-DQA1 (212671_s_at) avg fold change vs control [1] | HLA-DQB1 (211654_x_at) avg fold change vs control [1] | HLA-DQB1 (211656_x_at) avg fold change vs control [1] | HLA-DRA (208894_at) avg fold change vs control [1] | HLA-DRA (210982_s_at) avg fold change vs control [1] | IFI30 (201422_at) avg fold change vs control [1] | LYN (210754_s_at) avg fold change vs control [1] | MAF (209348_s_at) avg fold change vs control [1] | PLCL2 (216217_at) avg fold change vs control [1] | PTPN22 (206060_s_at) avg fold change vs control [1] | TRGC2 (216920_s_at) avg fold change vs control [1] | XLKD1 (219059_s_at) avg fold change vs control [1]
1.2 fold: HLA-A (211529_x_at) avg fold change vs control [1] | HLA-B (208729_x_at) avg fold change vs control [1] | HLA-DQB2 (212998_x_at) avg fold change vs control [1] | HLA-DRB1 (215193_x_at) avg fold change vs control [1] | HLA-DRB6 (217362_x_at) avg fold change vs control [1] | HLA-E (217456_x_at) avg fold change vs control [1] | HLA-F (221875_x_at) avg fold change vs control [1] | INPP5D (203332_s_at) avg fold change vs control [1] | KLKB1 (206541_at) avg fold change vs control [1] | PLA2G4C (209785_s_at) avg fold change vs control [1] | PLSCR1 (202446_s_at) avg fold change vs control [1] | TNFAIP3 (202644_s_at) avg fold change vs control [1] | TNFSF10 (202687_s_at) avg fold change vs control [1]
0.8 fold: ICAM1 (202638_s_at) avg fold change vs control [1] | IRF1 (202531_at) avg fold change vs control [1] | LILRB3 (210225_x_at) avg fold change vs control [1] | PRG1 (201858_s_at) avg fold change vs control [1] | PRG1 (201859_at) avg fold change vs control [1] | SOCS3 (206360_s_at) avg fold change vs control [1] | TNFAIP3 (202643_s_at) avg fold change vs control [1] | VCAM1 (203868_s_at) avg fold change vs control [1]
20 fold: increase of CXCL10 mRNA expression in pulmonary vein (monkey #A60055, 50 mg/kg/day oral gavage, two weeks, pulmonary vein)
2.5 fold: IFI44 (214453_s_at) avg fold change vs control [1]
1.3 fold: HLA-A (211528_x_at) avg fold change vs control [1] | HLA-A (215313_x_at) avg fold change vs control [1] | HLA-C (208812_x_at) avg fold change vs control [1] | HLA-C (216526_x_at) avg fold change vs control [1] | HLA-E (200905_x_at) avg fold change vs control [1] | IFIT2 (217502_at) avg fold change vs control [1] | JAK1 (214377_s_at) avg fold change vs control [1] | LILRB1 (211100_x_at) avg fold change vs control [1] | PTPRC (207238_s_at) avg fold change vs control [1] | STAT1 (AFFX-HUMISGF3A/M97935_5_at) avg fold change vs control [1] | STAT1 (AFFX-HUMISGF3A/M97935_MA_at) avg fold change vs control [1] | TRGC2 (211144_x_at) avg fold change vs control [1]
0.6 fold: ITGB2 (202803_s_at) avg fold change vs control [1]
1.5 fold: IFIT1 (203153_at) avg fold change vs control [1] | LCK (204890_s_at) avg fold change vs control [1] | LY86 (205859_at) avg fold change vs control [1] | STAT1 (AFFX-HUMISGF3A/M97935_MB_at) avg fold change vs control [1] | XCL1 (206366_x_at) avg fold change vs control [1]
1.1 fold: HHL (203020_at) avg fold change vs control [1] | HLA-B (209140_x_at) avg fold change vs control [1] | HLA-DMA (217478_s_at) avg fold change vs control [1] | HLA-DMB (203932_at) avg fold change vs control [1] | HLA-DRB3 (209312_x_at) avg fold change vs control [1] | HLA-F (204806_x_at) avg fold change vs control [1] | IFITM2 (201315_x_at) avg fold change vs control [1] | IL1A (208200_at) avg fold change vs control [1] | IL27RA (205926_at) avg fold change vs control [1] | INDO (210029_at) avg fold change vs control [1] | LY96 (206584_at) avg fold change vs control [1] | TNFSF6 (210865_at) avg fold change vs control [1] | XCL1 (214567_s_at) avg fold change vs control [1]
1.6 fold: IRF7 (208436_s_at) avg fold change vs control [1]
significantly increased: expression of Toll like receptor 2 and CD14 (several tissues)
1.4 fold: HLA-B (211911_x_at) avg fold change vs control [1] | HLA-C (214459_x_at) avg fold change vs control [1] | ICSBP1 (204057_at) avg fold change vs control [1] | IFITM3 (212203_x_at) avg fold change vs control [1] | IL2RG (204116_at) avg fold change vs control [1] | cig5 (213797_at) avg fold change vs control [1]
3.8 fold: IFI27 (202411_at) avg fold change vs control [1]
strongly induced: expression of CXCL10 and PD-ECGF (mainly in iliac and pulmonary veins, monkey #A60055)
